Publication PMC12486854, “Targeting mycobacterial transpeptidases: evaluating the roles of Ldt and PBP inhibition in suppressing Mycobacterium smegmatis” (Antimicrobial Agents and Chemotherapy, 2025)
Where two headings read alike, the source gives them in different places.

Columns and labels:
[1] = test system: Mycobacterium smegmatis (Msm); parameters: broth microdilution MIC, resazurin read-out, 4 days at 37 C; conditions: without clavulanic acid; 96 h
[2] = test system: Mycobacterium smegmatis (Msm); test: microbe, parasite or virus in culture; conditions: without clavulanic acid, 96 h
Mtb PBP3 Δ1-122 [3] = biological target: T1, Mtb PBP3 Δ1-122 (Mycobacterium tuberculosis, UniProt L0T911); test: biochemical
T1 construct: gene pbpB; N-terminally truncated (residues 1-122 removed), codon-optimised gene in pCold, E. coli BL21(DE3), His tag cleaved with 3C protease, calculated mass 60,148 Da, observed 60,152 Da

Mtb PBP3 Δ1-122 [4] = biological target: T1, Mtb PBP3 Δ1-122; test: biochemical; format: biochemical
LdtMt2 [5] = biological target: T2, LdtMt2 (Mycobacterium tuberculosis, UniProt I6Y9J2); test: biochemical
T2 construct: gene ldtB

LdtMt2 [6] = biological target: T2, LdtMt2; test: biochemical; remark: listed apart in the source
[7] = test system: Mycobacterium smegmatis (Msm); conditions: without clavulanic acid; 96 h
[8] = 10 min pre-incubation, read-out: pIC50 LdtMt2 (converted)

T2 sequence (I6Y9J2 35-408): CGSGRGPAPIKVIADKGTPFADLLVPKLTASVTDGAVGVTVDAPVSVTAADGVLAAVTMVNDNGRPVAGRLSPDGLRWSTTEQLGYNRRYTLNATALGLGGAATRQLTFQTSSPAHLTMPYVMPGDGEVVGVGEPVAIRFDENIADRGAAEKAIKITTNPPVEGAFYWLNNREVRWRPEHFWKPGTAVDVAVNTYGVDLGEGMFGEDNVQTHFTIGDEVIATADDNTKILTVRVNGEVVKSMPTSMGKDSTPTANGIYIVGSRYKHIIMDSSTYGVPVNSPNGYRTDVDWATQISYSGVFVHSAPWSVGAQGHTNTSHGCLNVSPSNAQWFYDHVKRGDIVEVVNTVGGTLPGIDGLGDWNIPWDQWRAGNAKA
T1 sequence (L0T911 whole entry, looked up, stated change not applied, the tested form may be a part): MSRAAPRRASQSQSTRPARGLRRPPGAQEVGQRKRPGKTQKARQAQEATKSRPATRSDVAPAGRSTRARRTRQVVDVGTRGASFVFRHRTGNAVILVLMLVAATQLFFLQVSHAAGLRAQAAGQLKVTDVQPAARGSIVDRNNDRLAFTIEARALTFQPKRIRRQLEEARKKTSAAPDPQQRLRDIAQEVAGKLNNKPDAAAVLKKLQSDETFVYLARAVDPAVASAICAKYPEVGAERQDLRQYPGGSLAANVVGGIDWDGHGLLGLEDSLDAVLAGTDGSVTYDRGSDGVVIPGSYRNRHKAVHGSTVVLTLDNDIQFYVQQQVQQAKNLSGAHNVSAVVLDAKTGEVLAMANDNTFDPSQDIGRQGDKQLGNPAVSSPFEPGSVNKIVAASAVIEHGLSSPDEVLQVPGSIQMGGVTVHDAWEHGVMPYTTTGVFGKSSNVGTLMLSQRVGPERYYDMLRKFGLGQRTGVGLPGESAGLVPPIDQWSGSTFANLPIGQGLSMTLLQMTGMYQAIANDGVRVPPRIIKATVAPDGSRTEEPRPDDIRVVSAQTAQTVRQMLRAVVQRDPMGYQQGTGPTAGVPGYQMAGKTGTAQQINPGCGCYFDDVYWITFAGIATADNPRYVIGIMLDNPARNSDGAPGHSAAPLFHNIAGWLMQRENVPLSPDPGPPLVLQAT

CC[C@@H](CO)NCCN[C@@H](CC)CO [Ethambutol]
MIC Msm (µg/mL), no clavulanic acid [1]: 0.25 µg/mL

C[C@@H](O)[C@H]1C(=O)N2C(C(=O)O)=C([C@H]3CCCO3)S[C@H]12 [compound 1, faropenem]
MIC Msm (µg/mL), no clavulanic acid [2]: 16 µg/mL

C[C@@H](O)[C@H]1C(=O)N2C(C(=O)O)=C(SCCN=CN)C[C@H]12 [compound 2, imipenem]
IC50 (Mtb PBP3 Δ1-122 [3]): 0.501 µM | MIC Msm (µg/mL), no clavulanic acid [2]: 0.125 µg/mL

CC(C)(O/N=C(\C(=O)N[C@@H]1C(=O)N2C(C(=O)[O-])=C(C[n+]3ccccc3)CS[C@H]12)c1csc(N)n1)C(=O)O [compound 6, ceftazidime]
MIC Msm (µg/mL), no clavulanic acid [2]: >128 µg/mL | IC50 (Mtb PBP3 Δ1-122 [4]): 3.16 µM

CO/N=C(\C(=O)N[C@@H]1C(=O)N2C(C(=O)O)=C(CSc3nc(=O)c(=O)[nH]n3C)CS[C@H]12)c1csc(N)n1 [compound 7, ceftriaxone]
MIC Msm (µg/mL), no clavulanic acid [2]: >128 µg/mL

CC1(C)S[C@@H]2[C@H](NC(=O)[C@H](N)c3ccccc3)C(=O)N2[C@H]1C(=O)O [compound 11, ampicillin]
MIC Msm (µg/mL), no clavulanic acid [2]: >128 µg/mL

CC1(C)S[C@@H]2[C@H](NC(=O)[C@H](N)c3ccc(O)cc3)C(=O)N2[C@H]1C(=O)O [compound 12, amoxicillin]
MIC Msm (µg/mL), no clavulanic acid [2]: >128 µg/mL

CC1(C)S[C@@H]2[C@H](NC(=O)C(C(=O)O)c3ccccc3)C(=O)N2[C@H]1C(=O)O (stereo partly drawn) [compound 15, carbenicillin]
IC50 (Mtb PBP3 Δ1-122 [4]): 3.98 µM

C[C@H]1[C@H](NC(=O)/C(=N\OC(C)(C)C(=O)O)c2csc(N)n2)C(=O)N1S(=O)(=O)O [compound 16, aztreonam]
IC50 (Mtb PBP3 Δ1-122 [4]): 158 µM

O=C(O)[C@H]1/C(=C/CO)O[C@@H]2CC(=O)N21 [compound 17, clavulanic acid]
IC50 (Mtb PBP3 Δ1-122 [3]): > 398 µM | MIC ([2]; Mycolicibacterium smegmatis, read-out: MIC Msm (µg/mL), no clavulanic acid): 128 µg/mL

CCC(C)[C@H](NC(=O)OCc1ccccc1)C(=O)CCl (stereo partly drawn) [compound 18, 18]
pIC50 (Mtb PBP3 Δ1-122 [4]): < 3.4

CCC(C)[C@H](NC(=O)OCc1ccccc1)C(=O)CCl (stereo partly drawn) [compound 18]
MIC Msm (µg/mL), no clavulanic acid [2]: >128 µg/mL

O=C1C=CC(=O)N1c1ccc(Oc2ccccc2)c(Cl)c1 [compound 19]
IC50 (Mtb PBP3 Δ1-122 [3]): 100 µM | MIC Msm (µg/mL), no clavulanic acid [2]: 64 µg/mL

O=C(OCN1C(=O)C=CC1=O)c1ccccc1 [compound 20]
MIC Msm (µg/mL), no clavulanic acid [2]: 64 µg/mL

O=c1c2cc(Cl)c(Cl)cc2sn1CCO [compound 21, 21]
IC50 (Mtb PBP3 Δ1-122 [3]): 79.4 µM | MIC Msm (µg/mL), no clavulanic acid [2]: 32 µg/mL

COc1ccc(CN2C(=O)C(=O)c3cc(Br)cc(C)c32)cc1OC [compound 22, 22]
IC50 (Mtb PBP3 Δ1-122 [4]): > 398 µM

COc1ccc(CN2C(=O)C(=O)c3cc(Br)cc(C)c32)cc1OC [compound 22]
MIC Msm (µg/mL), no clavulanic acid [2]: >128 µg/mL

O=C1C(=O)N(Cc2cccc3ccccc23)c2ccc(Br)cc21 [compound 23, 23]
MIC Msm (µg/mL), no clavulanic acid [2]: >128 µg/mL

NC(=O)OCC1=C(C(=O)O)N2C(=O)C(NC(=O)C(=CS(=O)(=O)CCc3ccc(O)c(O)c3)c3csc(N)n3)C2SC1 (stereo not drawn) [compound 24, 24]
pIC50 (Mtb PBP3 Δ1-122 [4]): 6.1 ± 0.089

N#Cn1c(-c2cc(F)cc(C(F)(F)F)c2)nc2ccccc21 [compound 25, 25]
MIC Msm (µg/mL), no clavulanic acid [2]: 48 µg/mL | IC50 (Mtb PBP3 Δ1-122 [4]): > 398 µM

N#Cn1c(-c2ccncc2)nc2ccc(C(=O)c3ccccc3)cc21 [compound 26]
MIC Msm (µg/mL), no clavulanic acid [2]: 16 µg/mL

O=C(C1OC1c1ccccc1)C1OC1c1ccccc1 (stereo not drawn) [compound 28, 28]
pIC50 (Mtb PBP3 Δ1-122 [4]): < 3.4

COc1cccc(NC(=O)C(Cl)=C(Cl)S(=O)(=O)Cc2ccccc2Cl)n1 [compound 29, 29]
pIC50 (Mtb PBP3 Δ1-122 [4]): < 3.4

NC(=O)C=CC(=O)Nc1ccc(Cl)cc1 [compound 30, 30]
IC50 (Mtb PBP3 Δ1-122 [4]): > 398 µM

NC(=O)C=CC(=O)Nc1ccc(Cl)cc1 [compound 30]
MIC Msm (µg/mL), no clavulanic acid [2]: >128 µg/mL

O=[N+]([O-])c1ccc(S(=O)(=O)c2ccccc2)nc1 [compound 31, 31]
MIC Msm (µg/mL), no clavulanic acid [2]: 8 µg/mL | kinact/KI (LdtMt2 [5]; read-out: kinact/KI LdtMt2): 52.6 M⁻¹ s⁻¹ | IC50 (LdtMt2 [6]; [8]): 5.01 µM | IC50 (Mtb PBP3 Δ1-122 [4]): > 398 µM

O=[N+]([O-])c1ccc(S(=O)(=O)c2ccccc2)cn1 [compound 32, 32]
kinact/KI (LdtMt2 [5]; read-out: kinact/KI LdtMt2): < 10 M⁻¹ s⁻¹ | IC50 (LdtMt2 [6]; [8]): 25.1 µM | MIC Msm (µg/mL), no clavulanic acid [7]: 4 µg/mL

Cc1ccc(S(=O)(=O)c2ccc([N+](=O)[O-])cn2)cc1 [compound 33, 33]
kinact/KI (LdtMt2 [5]; read-out: kinact/KI LdtMt2): 51.9 M⁻¹ s⁻¹

O=[N+]([O-])c1ccc(S(=O)(=O)c2ccc(Cl)cc2)nc1 [compound 34, 34]
kinact/KI (LdtMt2 [5]; read-out: kinact/KI LdtMt2): 86.9 M⁻¹ s⁻¹

O=[N+]([O-])c1ccc(S(=O)(=O)c2ccc(Br)cc2)nc1 [compound 35, 35]
kinact/KI (LdtMt2 [5]; read-out: kinact/KI LdtMt2): 272 M⁻¹ s⁻¹

O=[N+]([O-])c1cccnc1S(=O)(=O)c1ccccc1 [compound 36, 36]
kinact/KI (LdtMt2 [5]; read-out: kinact/KI LdtMt2): < 10 M⁻¹ s⁻¹ | IC50 (LdtMt2 [6]; [8]): 25.1 µM | MIC Msm (µg/mL), no clavulanic acid [7]: 16 µg/mL

O=S(=O)(c1ccccc1)c1ccccn1 [compound 37, 37]
kinact/KI (LdtMt2 [5]; read-out: kinact/KI LdtMt2): < 10 M⁻¹ s⁻¹ | IC50 (LdtMt2 [6]; [8]): > 39.8 µM | MIC Msm (µg/mL), no clavulanic acid [7]: >128 µg/mL

O=S(=O)(c1ccccc1)c1cccnc1 [compound 38, 38]
kinact/KI (LdtMt2 [5]; read-out: kinact/KI LdtMt2): < 10 M⁻¹ s⁻¹ | IC50 (LdtMt2 [6]; [8]): > 39.8 µM | MIC Msm (µg/mL), no clavulanic acid [7]: >128 µg/mL

O=S(=O)(c1ccccc1)c1ccncc1 [compound 39, 39]
kinact/KI (LdtMt2 [5]; read-out: kinact/KI LdtMt2): < 10 M⁻¹ s⁻¹ | IC50 (LdtMt2 [6]; [8]): > 39.8 µM | MIC Msm (µg/mL), no clavulanic acid [7]: >128 µg/mL

COc1ccc(S(=O)(=O)c2ccccc2)nc1 [compound 40, 40]
kinact/KI (LdtMt2 [5]; read-out: kinact/KI LdtMt2): < 10 M⁻¹ s⁻¹ | IC50 (LdtMt2 [6]; [8]): > 39.8 µM | MIC Msm (µg/mL), no clavulanic acid [7]: >128 µg/mL

N#Cc1ccc(S(=O)(=O)c2ccccc2)nc1 [compound 41, 41]
kinact/KI (LdtMt2 [5]; read-out: kinact/KI LdtMt2): < 10 M⁻¹ s⁻¹ | IC50 (LdtMt2 [6]; [8]): 25.1 µM | MIC Msm (µg/mL), no clavulanic acid [7]: >128 µg/mL

N#Cc1cccnc1S(=O)(=O)c1ccccc1 [compound 42, 42]
kinact/KI (LdtMt2 [5]; read-out: kinact/KI LdtMt2): < 10 M⁻¹ s⁻¹ | IC50 (LdtMt2 [6]; [8]): > 39.8 µM | MIC Msm (µg/mL), no clavulanic acid [7]: >128 µg/mL

O=[N+]([O-])c1ccc(Cl)nc1 [compound 43, 43]
kinact/KI (LdtMt2 [5]; read-out: kinact/KI LdtMt2): < 10 M⁻¹ s⁻¹ | IC50 (LdtMt2 [6]; [8]): > 39.8 µM | MIC Msm (µg/mL), no clavulanic acid [7]: 32 µg/mL

Clc1ccccn1 [compound 44, 44]
kinact/KI (LdtMt2 [5]; read-out: kinact/KI LdtMt2 (M^-1 s^-1)): < 10 M⁻¹ s⁻¹ | IC50 (LdtMt2 [6]): > 39.8 µM | MIC Msm (µg/mL), no clavulanic acid [7]: >128 µg/mL

Nc1ncc(S(=O)(=O)c2ccc([N+](=O)[O-])cc2)s1 [compound 45, 45]
MIC Msm (µg/mL), no clavulanic acid [7]: >128 µg/mL

O=[N+]([O-])c1ccc(S(=O)(=O)c2ncc(C(F)(F)F)cc2Cl)cc1 [compound 46, 46]
kinact/KI (LdtMt2 [5]; read-out: kinact/KI LdtMt2): < 10 M⁻¹ s⁻¹ | IC50 (LdtMt2 [6]; [8]): > 39.8 µM | MIC Msm (µg/mL), no clavulanic acid [7]: >128 µg/mL

C[C@@H](O)[C@H]1C(=O)N2C(C(=O)O)=C(S[C@@H]3CN[C@H](CNS(N)(=O)=O)C3)[C@H](C)[C@H]12 [doripenem]
MIC Msm (µg/mL), no clavulanic acid [2]: 0.5 µg/mL

C[C@@H](O)[C@H]1C(=O)N2C(C(=O)O)=C(S[C@@H]3CN[C@H](C(=O)Nc4cccc(C(=O)O)c4)C3)[C@H](C)[C@H]12 [ertapenem]
MIC Msm (µg/mL), no clavulanic acid [2]: 4 µg/mL

C[C@@H](O)[C@H]1C(=O)N2C(C(=O)O)=C(S[C@@H]3CN[C@H](C(=O)N(C)C)C3)[C@H](C)[C@H]12 [meropenem]
MIC Msm (µg/mL), no clavulanic acid [2]: 2 µg/mL
